Measured values reported in PubChem BioAssay AID2060884 (Molecular Pharmacology Branch, DTP, NCI, 2025).

Tested on: NCI-H929 complex spheroids, viability % test/control
Assay: Anticancer human tumor NCI-H929 cell line growth inhibition [RAS];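 further: compound exposure lasted seven days before viability was read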;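 on viability, T/C: 100% = DMSO vehicle control viability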
Settings: for IC50: curve of first compound; for viability, T/C: stronger effect = lower value; active means viability on the fitted dose curve at most 10% of control; inactive means the rest
Outline: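 Agents were tested in combination matrices in half-log decrements from a top concentration at or near clinical Cmax (10 microM if undetermined). Targets were multi-cell spheroids of tumour lines plus HUVEC and MSC stromal cells.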

[1] = second compound 0.000949 µM, first compound 0.0316 µM
[2] = second compound 0.000949 µM, first compound 0.1 µM
[3] = second compound 0.000949 µM, first compound 0.316 µM
[4] = second compound 0.000949 µM, first compound 1 µM
[5] = second compound 0.000949 µM, first compound 3.16 µM
[6] = second compound 0.000949 µM, first compound 10 µM
[7] = second compound 0.003 µM, first compound 0.0316 µM
[8] = second compound 0.003 µM, first compound 0.1 µM
[9] = second compound 0.003 µM, first compound 0.316 µM
[10] = second compound 0.003 µM, first compound 1 µM
[11] = second compound 0.003 µM, first compound 3.16 µM
[12] = second compound 0.003 µM, first compound 10 µM
[13] = second compound 0.00949 µM, first compound 0.0316 µM
[14] = second compound 0.00949 µM, first compound 0.1 µM
[15] = second compound 0.00949 µM, first compound 0.316 µM
[16] = second compound 0.00949 µM, first compound 1 µM
[17] = second compound 0.00949 µM, first compound 3.16 µM
[18] = second compound 0.00949 µM, first compound 10 µM
[19] = second compound 0.03 µM, first compound 0.0316 µM
[20] = second compound 0.03 µM, first compound 0.1 µM
[21] = second compound 0.03 µM, first compound 0.316 µM
[22] = second compound 0.03 µM, first compound 1 µM
[23] = second compound 0.03 µM, first compound 3.16 µM
[24] = second compound 0.03 µM, first compound 10 µM
[25] = second compound 0.0949 µM, first compound 0.0316 µM
[26] = second compound 0.0949 µM, first compound 0.1 µM
[27] = second compound 0.0949 µM, first compound 0.316 µM
[28] = second compound 0.0949 µM, first compound 1 µM
[29] = second compound 0.0949 µM, first compound 3.16 µM
[30] = second compound 0.0949 µM, first compound 10 µM
[31] = second compound 0.3 µM, first compound 0.0316 µM
[32] = second compound 0.3 µM, first compound 0.1 µM
[33] = second compound 0.3 µM, first compound 0.316 µM
[34] = second compound 0.3 µM, first compound 1 µM
[35] = second compound 0.3 µM, first compound 3.16 µM
[36] = second compound 0.3 µM, first compound 10 µM

NC1c2ccccc2OC12CCN(c1cnc3c(N4CCCc5ncccc54)n[nH]c3n1)CC2 (stereo not drawn) + CCn1c(-c2cc(N3CCN(C)CC3)cnc2C(C)OC)c2c3cc(ccc31)-c1csc(n1)CC(NC(=O)C1CC1C)C(=O)N1CCCC(N1)C(=O)OCC(C)(C)C2
> 10000 nM: IC50 (second compound 0.000949 µM) | IC50 (second compound 0.003 µM) | IC50 (second compound 0.00949 µM)
inactive: viability, T/C [1] 107% | viability, T/C [2] 104% | viability, T/C [3] 108% | viability, T/C [4] 108% | viability, T/C [5] 113% | viability, T/C [6] 78.6% | viability, T/C [7] 107% | viability, T/C [8] 108% | viability, T/C [9] 109% | viability, T/C [10] 111% | viability, T/C [11] 109% | viability, T/C [12] 80.9% | viability, T/C [13] 121% | viability, T/C [14] 128% | viability, T/C [15] 128% | viability, T/C [16] 125% | viability, T/C [17] 121% | viability, T/C [18] 87.8% | viability, T/C [19] 15.4% | viability, T/C [20] 13.8% | viability, T/C [21] 14.9% | viability, T/C [22] 12.7% | viability, T/C [23] 18.3% | viability, T/C [24] 12%
< 31.6 nM: IC50 (second compound 0.03 µM) | IC50 (second compound 0.0949 µM) | IC50 (second compound 0.3 µM)
active: viability, T/C [25] 3.25% | viability, T/C [26] 2.4% | viability, T/C [27] 2.09% | viability, T/C [28] 2.07% | viability, T/C [29] 1.88% | viability, T/C [30] 0.76% | viability, T/C [31] 1.75% | viability, T/C [32] 1.24% | viability, T/C [33] 0.73% | viability, T/C [34] 0.89% | viability, T/C [35] 1.51% | viability, T/C [36] 0.19%

C=CC(=O)Nc1cc(Nc2nccc(-c3cn(C)c4ccccc34)n2)c(OC)cc1N(C)CCN(C)C + CCn1c(-c2cc(N3CCN(C)CC3)cnc2C(C)OC)c2c3cc(ccc31)-c1csc(n1)CC(NC(=O)C1CC1C)C(=O)N1CCCC(N1)C(=O)OCC(C)(C)C2
< 3.16 nM: IC50 (second compound 0.0949 µM) | IC50 (second compound 0.3 µM)
inactive: viability, T/C (second compound 0.000949 µM, first compound 0.00316 µM) 97.3% | viability, T/C (second compound 0.000949 µM, first compound 0.01 µM) 95% | viability, T/C [1] 103% | viability, T/C [2] 94.9% | viability, T/C [3] 105% | viability, T/C [4] 103% | viability, T/C (second compound 0.003 µM, first compound 0.00316 µM) 87.2% | viability, T/C (second compound 0.003 µM, first compound 0.01 µM) 95.3% | viability, T/C [7] 98.8% | viability, T/C [8] 98.4% | viability, T/C [9] 103% | viability, T/C [10] 106% | viability, T/C (second compound 0.00949 µM, first compound 0.00316 µM) 108% | viability, T/C (second compound 0.00949 µM, first compound 0.01 µM) 112% | viability, T/C [13] 112% | viability, T/C [14] 114% | viability, T/C [15] 111% | viability, T/C [16] 112% | viability, T/C (second compound 0.03 µM, first compound 0.00316 µM) 54.3% | viability, T/C (second compound 0.03 µM, first compound 0.01 µM) 46.8% | viability, T/C [19] 59.9% | viability, T/C [20] 49.9% | viability, T/C [21] 42.2% | viability, T/C [22] 9.94%
active: viability, T/C (second compound 0.0949 µM, first compound 0.00316 µM) 7.68% | viability, T/C (second compound 0.0949 µM, first compound 0.01 µM) 6.73% | viability, T/C [25] 7.23% | viability, T/C [26] 6.05% | viability, T/C [27] 5.18% | viability, T/C [28] 1.96% | viability, T/C (second compound 0.3 µM, first compound 0.00316 µM) 4.84% | viability, T/C (second compound 0.3 µM, first compound 0.01 µM) 4.08% | viability, T/C [31] 4.06% | viability, T/C [32] 3.89% | viability, T/C [33] 3.59% | viability, T/C [34] 1.46%
120 nM: IC50 (second compound 0.03 µM)
> 1000 nM: IC50 (second compound 0.000949 µM) | IC50 (second compound 0.003 µM) | IC50 (second compound 0.00949 µM)

CC1(O)CCCC1n1c(=O)c(C(F)F)cc2cnc(NC3CCN(S(C)(=O)=O)CC3)nc21 (stereo not drawn) + C#Cc1c(F)ccc2cc(O)cc(-c3ncc4c(N5CC6CCC(C5)N6)nc(OCC56CCCN5CC(F)C6)nc4c3F)c12
183 nM: IC50 (second compound 3.16 µM)
105 nM: IC50 (second compound 10 µM)
active: viability, T/C (second compound 0.0316 µM, first compound 0.316 µM) 5.76% | viability, T/C (second compound 0.0316 µM, first compound 1 µM) 10.1% | viability, T/C (second compound 0.0316 µM, first compound 3.16 µM) 3.99% | viability, T/C (second compound 0.0316 µM, first compound 10 µM) 0.89% | viability, T/C (second compound 0.1 µM, first compound 0.316 µM) 5.96% | viability, T/C (second compound 0.1 µM, first compound 1 µM) 11.6% | viability, T/C (second compound 0.1 µM, first compound 3.16 µM) 3.51% | viability, T/C (second compound 0.1 µM, first compound 10 µM) 0.63% | viability, T/C (second compound 0.316 µM, first compound 0.316 µM) 6.91% | viability, T/C (second compound 0.316 µM, first compound 1 µM) 13.5% | viability, T/C (second compound 0.316 µM, first compound 3.16 µM) 4.01% | viability, T/C (second compound 0.316 µM, first compound 10 µM) 0.21% | viability, T/C (second compound 1 µM, first compound 0.316 µM) 6.21% | viability, T/C (second compound 1 µM, first compound 1 µM) 11.2% | viability, T/C (second compound 1 µM, first compound 3.16 µM) 3.72% | viability, T/C (second compound 1 µM, first compound 10 µM) 0.45% | viability, T/C (second compound 3.16 µM, first compound 0.316 µM) 6% | viability, T/C (second compound 3.16 µM, first compound 1 µM) 12.5% | viability, T/C (second compound 3.16 µM, first compound 3.16 µM) 2.73% | viability, T/C (second compound 3.16 µM, first compound 10 µM) 0.21% | viability, T/C (second compound 10 µM, first compound 1 µM) 11.6% | viability, T/C (second compound 10 µM, first compound 3.16 µM) 3.3% | viability, T/C (second compound 10 µM, first compound 10 µM) 0.45%
191 nM: IC50 (second compound 0.1 µM)
inactive: viability, T/C (second compound 0.0316 µM, first compound 0.0316 µM) 112% | viability, T/C (second compound 0.0316 µM, first compound 0.1 µM) 106% | viability, T/C (second compound 0.1 µM, first compound 0.0316 µM) 104% | viability, T/C (second compound 0.1 µM, first compound 0.1 µM) 108% | viability, T/C (second compound 0.316 µM, first compound 0.0316 µM) 105% | viability, T/C (second compound 0.316 µM, first compound 0.1 µM) 112% | viability, T/C (second compound 1 µM, first compound 0.0316 µM) 107% | viability, T/C (second compound 1 µM, first compound 0.1 µM) 109% | viability, T/C (second compound 3.16 µM, first compound 0.0316 µM) 114% | viability, T/C (second compound 3.16 µM, first compound 0.1 µM) 99% | viability, T/C (second compound 10 µM, first compound 0.0316 µM) 97.9% | viability, T/C (second compound 10 µM, first compound 0.1 µM) 51.8% | viability, T/C (second compound 10 µM, first compound 0.316 µM) 10.6%
190 nM: IC50 (second compound 0.0316 µM)
194 nM: IC50 (second compound 0.316 µM)
193 nM: IC50 (second compound 1 µM)

CC(C)NCC(C(=O)N1CCN(c2ncnc3c2C(C)CC3O)CC1)c1ccc(Cl)cc1 (stereo not drawn) + CCn1c(-c2cc(N3CCN(C)CC3)cnc2C(C)OC)c2c3cc(ccc31)-c1csc(n1)CC(NC(=O)C1CC1C)C(=O)N1CCCC(N1)C(=O)OCC(C)(C)C2
inactive: viability, T/C [1] 102% | viability, T/C [2] 97.5% | viability, T/C [3] 105% | viability, T/C [4] 80.3% | viability, T/C [5] 16% | viability, T/C [7] 97.7% | viability, T/C [8] 102% | viability, T/C [9] 106% | viability, T/C [10] 82.3% | viability, T/C [11] 11.1% | viability, T/C [13] 109% | viability, T/C [14] 115% | viability, T/C [15] 109% | viability, T/C [16] 15.4% | viability, T/C [19] 42.5% | viability, T/C [20] 23.2%
652 nM: IC50 (second compound 0.00949 µM)
1690 nM: IC50 (second compound 0.003 µM)
< 31.6 nM: IC50 (second compound 0.03 µM) | IC50 (second compound 0.0949 µM) | IC50 (second compound 0.3 µM)
1720 nM: IC50 (second compound 0.000949 µM)
active: viability, T/C [6] 2.39% | viability, T/C [12] 1.27% | viability, T/C [17] 1.11% | viability, T/C [18] 0.51% | viability, T/C [21] 5.92% | viability, T/C [22] 1.07% | viability, T/C [23] 0.47% | viability, T/C [24] 0.39% | viability, T/C [25] 5.19% | viability, T/C [26] 2.73% | viability, T/C [27] 0.72% | viability, T/C [28] 0.7% | viability, T/C [29] 0.37% | viability, T/C [30] 0.17% | viability, T/C [31] 2.88% | viability, T/C [32] 1.14% | viability, T/C [33] 0.58% | viability, T/C [34] 0.57% | viability, T/C [35] 0.75% | viability, T/C [36] 0.24%
